Experimental data: PubChem BioAssay (NCI)
Several values for one entry are separate records, joined by “and”; a condition that tells them apart may be missing. Equal entries are not always repeated.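 Exposure lasted 48 hours, with cells grown in 96-well plates and compounds tested at five concentrations. GI50 marks 50% less growth. TGI is the concentration that stops growth completely.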

Legend:
Assay in all cases: inhibition of tumour cell growth, NCI panel, 48 h
HS 578T breast = tested on: HS 578T breast
ACHN renal = tested on: ACHN renal
MOLT-4 leukemia = tested on: MOLT-4 leukemia
SF-268 CNS = tested on: SF-268 CNS
786-0 renal = tested on: 786-0 renal
A549 NSCLC = tested on: A549 NSCLC
KM12 colon = tested on: KM12 colon
SK-MEL-5 melanoma = tested on: SK-MEL-5 melanoma
UACC-62 melanoma = tested on: UACC-62 melanoma
OVCAR-3 ovarian = tested on: OVCAR-3 ovarian

| Compound | GI50 (HS 578T breast) [µM] | TGI (HS 578T breast) [µM] | GI50 (ACHN renal) [µM] | TGI (ACHN renal) [µM] | GI50 (MOLT-4 leukemia) [µM] | TGI (MOLT-4 leukemia) [µM] | GI50 (SF-268 CNS) [µM] | TGI (SF-268 CNS) [µM] | GI50 (786-0 renal) [µM] | TGI (786-0 renal) [µM] | GI50 (A549 NSCLC) [µM] | TGI (A549 NSCLC) [µM] | GI50 (KM12 colon) | TGI (KM12 colon) | GI50 (SK-MEL-5 melanoma) | TGI (SK-MEL-5 melanoma) | GI50 (UACC-62 melanoma) [µM] | TGI (UACC-62 melanoma) [µM] | GI50 (OVCAR-3 ovarian) [µM] | TGI (OVCAR-3 ovarian) [µM] |
| --- | --- | --- | --- | --- | --- | --- | --- | --- | --- | --- | --- | --- | --- | --- | --- | --- | --- | --- | --- | --- |
| O=C(CCCCCCNC(=O)c1cnc(N(c2ccccc2)c2ccccc2)nc1)NO | 2.54 | > 100 | 3.99 | 23.2 | 2.13 | > 100 | 3.77 | 33.2 | 6.18 | > 73.1 | 6.12 | > 92.7 | 3.26 µM | 21.7 µM | 1.82 µM | 5.48 µM | 1.21 | 4.42 | 2.71 | 15.3 |
| C[C@H](NC(=O)[C@@H](C)N)[C@H](Oc1ccc2c(cnn2-c2ccc(F)cc2)c1)c1ccc2c(c1)OCCO2 | 3.67 | 13.1 | 1.83 | 4.9 | 1.44 | 4.25 | 2.48 | 10.7 | 3.77 | 14.3 | 1.36 | 12.6 | 2.13 µM | 5.15 µM | 1.52 µM | 2.94 µM | 1.87 | 3.39 | 2.37 | 6.98 |
| O=C1C(Cl)=C(Nc2cccc(Cl)c2)C(=O)N1Cc1ccc(Cl)cc1 | 0.913 | 11.1 | 1.39 | 15 | 0.513 | > 100 | 1.41 | 19.3 | 0.186 | 5.48 | 3.71 | 21 | 2.83 µM | 14.2 µM | 0.66 µM | 4.32 µM | 0.779 | 4.68 | 0.784 | 6.24 |
| CSC(=Nc1nnc(-c2ccc([N+](=O)[O-])cc2)s1)SC | – | > 81.8 | – | > 100 | – | > 100 | – | 68 | – | 55.5 | – | > 100 | – | > 100 µM | – | > 100 µM | – | > 76.5 | – | > 89.7 |
| CCN(Cc1ccc(Cl)cc1)c1ccc(CO)c(Cl)c1 | 6.09 | 31.5 | 4.64 | 19.6 | 13.5 | 43.4 | 13.5 | 29.6 | 2.19 | 13.3 | 1.35 | 14.3 | 11.8 µM | 25.6 µM | 2.58 µM | 13.2 µM | 0.0929 | 0.719 | 1.15 | 5.75 |
| CCN(Cc1cc(Nc2nc(C)cn3c(-c4cn[nH]c4)cnc23)sn1)C(C)(C)CO | 0.0227 | 0.0855 | 0.0306 | 11.9 | 0.0465 | 12.4 | 0.0376 | 1.87 | 0.0473 | 2.73 | 0.0543 | 2.21 | 0.0328 µM | 10.4 µM | 0.222 µM | 2.08 µM | 0.0387 | 12.8 | 0.0481 | 2.68 |
| COc1ccc(-c2cc3c(c4cc(OC)ccc24)C(=O)OC3=O)cc1 | – | > 100 | – | > 100 | – | > 100 | – | > 100 | – | > 100 | – | > 100 | – | > 100 µM | – | > 100 µM | – | > 100 | – | > 100 |
| O=C(O)CN(CC(=O)O)Cc1cc(C#Cc2ccc(C#Cc3ccccc3)cc2)cc(CN(CC(=O)O)CC(=O)O)n1 | – | > 100 | – | 97.5 | – | 53.7 | – | > 85.4 | – | 47.1 | – | > 100 | – | > 92 µM | – | > 71.5 µM | – | 40.4 | – | > 39.9 |
| COc1ccc(/C=C/C(=O)c2cc(OC)c(OC)c(OC)c2)cc1OCc1cn(Cc2ccc(F)cc2)nn1 | 3.38 | > 100 | 3.53 | 16.7 | 3.97 | 68.5 | 2.98 | > 100 | 4.44 | > 100 | 2.63 | 9.13 | 3.14 µM | 18.2 µM | 3.24 µM | 13.3 µM | 3.16 | 14.3 | 3.41 | > 100 |
| O=c1[nH]nnc2c1ncn2C1OC(CO)C(O)C1O (stereo not drawn) | > 100 | > 100 | 1.8 | > 100 | 2.07 | 36 | 19.1 | > 100 | 24 | > 100 | 75.7 | > 100 | 11.8 µM | > 100 µM | 32.9 µM | > 100 µM | 4.95 | > 100 | 7.75 | > 100 |
| CC[C@@H]1c2c(C#N)ncn2-c2cnc(Nc3ccc(C(=O)NC4CCN(C5CCN(CC6CC6)CC5)CC4)cc3OC)nc2N1C1CCCC1 | 0.069 | 1.78 | 0.625 | 1.93 | 0.037 | 1.51 | 0.0642 | 1.77 | 0.164 | 1.2 | 0.0401 | 1.12 | 0.0363 µM and 0.0338 µM | 1.07 µM and 1.05 µM | 0.13 µM and 0.182 µM | 1.52 µM and 1.68 µM | 0.372 | 1.79 | 0.0401 | 1.63 |
| CCOC(=O)N1CCN(/[N+]([O-])=N/Oc2ccc([N+](=O)[O-])cc2[N+](=O)[O-])CC1 | 5.84 | 37.4 | 0.479 | 1.37 | 0.482 | – | 3.86 | 10.6 | 0.322 | 1.64 | 3.63 | 14.1 | 1.78 µM | 8.56 µM | 2.77 µM | 12.1 µM | 2.65 | 12.8 | 0.542 | 1.82 |
| Oc1c(-c2nnc(-c3ccccc3Cl)o2)sc2nnc(-c3ccccc3)c(-c3ccccc3)c12 | 3.78 | > 100 | 3.46 | 89.7 | 3.88 | > 100 | 6.27 | > 100 | 7.22 | > 100 | 4.31 | 61.5 | 4.36 µM | 51.3 µM | 5.99 µM | 19.8 µM | 2.64 | 9.49 | 2.64 | 8 |
| O=C(Oc1cccc(F)c1OC(=O)c1cccc(O)c1)c1cccc(O)c1 | > 100 | > 100 | 23.6 | > 100 | 15.9 | > 100 | 11.2 | > 100 | 37 | > 100 | 24.6 | > 100 | 23.1 µM | > 100 µM | 6.9 µM | > 100 µM | 40.8 | > 100 | 4.82 | 45.7 |
| CCOC(=O)Nc1ccc2c(c1)/C(=N\NC(N)=S)c1ccccc1-2 | 5.43 | 36.7 | 3.87 | 15.7 | 2.83 | 13.2 | 6.14 | 39.9 | 3.06 | 9.08 | 3.79 | 19.7 | 3.29 µM | 13.6 µM | 2.44 µM | 7.59 µM | 2.03 | 4.77 | 4.38 | 27.8 |
| C=C(C)[C@@H]1CC[C@]2(C)CC[C@]3(C)[C@H](CC[C@@H]4[C@@]5(C)CC[C@H](O)C(C)(C)[C@@H]5CC[C@]43C)[C@@H]12 | – | 61.7 | – | > 100 | – | > 70.3 | – | > 100 | – | > 63.8 | – | > 100 | – | > 100 µM | – | > 100 µM | – | > 100 | – | > 100 |
| C/C(=N\NC(=S)N1CC2CCC(CC2)C1)c1nccs1 | – | 38.6 | – | 8.99 | – | 20.7 | – | 9.41 | – | 7.55 | – | 8.87 | – | 17.6 µM | – | 5.24 µM | – | 0.893 | – | 19.8 |
| COc1ccc2[nH]cc(-c3ccc(-c4c[nH]c5ccc(OC)cc45)s3)c2c1 | 8.99 | 44.6 | 4.14 | 15.9 | 1.16 | 6.95 | 8.11 | 31.7 | 2.36 | 7.64 | 3.94 | 21.9 | 2.37 µM | 6.67 µM | 5.05 µM | 17.6 µM | 13.3 | 30.8 | 10.7 | 27.5 |
| O=C1C(Cl)=C(Nc2cccc(F)c2)C(=O)N1Cc1ccc(Cl)cc1 | 2.86 | 9.28 | 2.54 | 15.2 | 0.506 | > 100 | 1.43 | 8.07 | 0.305 | 3.98 | 1.73 | 16.9 | 2.66 µM | 19.1 µM | 0.403 µM | 2.19 µM | – | 2.48 | 1.19 | 6.84 |
